These results are taken from ChEMBL document CHEMBL1201862, “PubChem BioAssay data set” (2004).

Some test systems named below: UACC-257; SN12C; MCF7; RXF 393; HL-60; SF-268; M14; SF-539; CAKI-1; NCI-H23; SK-MEL-28; BT-549; SNB-75; Hs-578T; ACHN; MDA-MB-231; A549; SW-620; U-251; NCI/ADR-RES.
Common to all, as to experiment: NCI-60 cell line screen, 48 h

Structures are written as SMILES.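 Dose response: 5 concentrations. Exposure: 48 h. Format: 96-well plates. Endpoint: linear interpolation; highest concentration if not reached. GI50 marks 50% less growth.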 Activity calls are given as the source filed them. Cut-off read from the data, not from the text of the source: active = GI50 up to about 1.1 µM and inactive = higher.

For `c1ccc2cc(NCNc3ccc4ccccc4c3)ccc2c1`, the GI50 was 8.73 µM (inactive) in the test with UACC-257; 9.53 µM (inactive) in the test with SN12C; 11.8 µM (inactive) with MCF7; 10.3 µM (inactive) in the test on RXF 393; 0.893 µM (active) in the test with HL-60; 38.8 µM (inactive) in the test on SF-268. Moreover, the GI50 is 15.5 µM (inactive) with M14; 29.3 µM (inactive) in the test with SF-539; 17.9 µM (inactive) in the test on CAKI-1; 12.2 µM (inactive) in the test with NCI-H23; 34.8 µM (inactive) in the test with SK-MEL-28; 24.9 µM (inactive) in the test with BT-549. Also, the GI50 in the test with SNB-75 is 13.2 µM (inactive); in the test on Hs-578T, 37.8 µM (inactive); with ACHN it was 16.3 µM (inactive); in the test on MDA-MB-231 it was 2.51 µM (inactive); with A549 it was 18.3 µM (inactive); with SW-620, 34.2 µM (inactive). For the same compound, the GI50 in the test with U-251 is 23.3 µM (inactive); in the test on NCI/ADR-RES it was 21.7 µM (inactive).

As to `N/N=c1\[nH]c2ccccc2o1`, the GI50 in the test with UACC-257 is > 100 µM (inactive); in the test with SN12C, > 100 µM (inactive); in the test with MCF7, 88.7 µM (inactive); in the test on RXF 393, > 100 µM (inactive); with HL-60, 53.6 µM (inactive); in the test on SF-268, > 100 µM (inactive). The GI50 in the test on M14, with SF-539, in the test with CAKI-1, with NCI-H23, in the test on SK-MEL-28 and in the test on BT-549 was > 100 µM (inactive) throughout. Besides, the GI50 in the test with SNB-75, in the test with Hs-578T, with ACHN, in the test with MDA-MB-231, with A549 and with SW-620 was > 100 µM (inactive) in each case. For the same compound, the GI50 was > 100 µM (inactive) in the test with U-251 and 52.7 µM (inactive) in the test on NCI/ADR-RES.

Consider `[O-][n+]1cn[n+]([O-])c2ccccc21`, for which the GI50 with UACC-257 is 16.9 µM (inactive); in the test on SN12C it was 38.3 µM (inactive); in the test with MCF7, 14.3 µM (inactive); in the test on RXF 393, 20.7 µM (inactive); in the test on HL-60, 5.04 µM (inactive); in the test with SF-268, 33.2 µM (inactive). For the same compound, the GI50 in the test on M14 was 23.8 µM (inactive); in the test with SF-539, 22.3 µM (inactive); in the test on CAKI-1, 18.9 µM (inactive); in the test on NCI-H23, 65.3 µM (inactive); in the test with SK-MEL-28, > 100 µM (inactive); in the test on BT-549, 23.7 µM (inactive). The GI50 with SNB-75 was 66.5 µM (inactive); in the test on Hs-578T, 57.1 µM (inactive); in the test with ACHN, 12.2 µM (inactive); in the test with MDA-MB-231, 14.3 µM (inactive); in the test on A549 it was 39.6 µM (inactive); in the test on SW-620, 6.82 µM (inactive). Further, the GI50 is 32.4 µM (inactive) with U-251 and 23.5 µM (inactive) with NCI/ADR-RES.

In the case of `COC(=O)C1=C(C)NC(C)=C(C(=O)OC)C1c1ccc(/[N+]([O-])=C/c2ccccc2)cc1`, the GI50 in the test with UACC-257 is 29.6 µM (inactive); in the test on SN12C, 51.5 µM (inactive); in the test on MCF7, 16.7 µM (inactive); in the test with RXF 393, 19.7 µM (inactive); with HL-60, 15.1 µM (inactive); in the test on SF-268, > 100 µM (inactive). In addition, the GI50 in the test on M14 is 18.1 µM (inactive); in the test on SF-539, > 100 µM (inactive); in the test on CAKI-1, 18.7 µM (inactive); in the test with NCI-H23 it was 42.5 µM (inactive); with SK-MEL-28 it was 18.7 µM (inactive); with BT-549, 18.8 µM (inactive). For the same compound, the GI50 was 34.9 µM (inactive) with SNB-75; 41.3 µM (inactive) with Hs-578T; 17.4 µM (inactive) in the test with ACHN; 41.1 µM (inactive) in the test on MDA-MB-231; 96.6 µM (inactive) in the test on A549; 20 µM (inactive) with SW-620. Further, the GI50 in the test with U-251 is > 100 µM (inactive); with NCI/ADR-RES, 66.5 µM (inactive).
